Publication PMC7261172, “Peptides containing the PCNA interacting motif APIM bind to the β-clamp and inhibit bacterial growth and mutagenesis” (Nucleic Acids Research, 2020)

Legend:
E. coli BL21 = type: cell-based, Escherichia coli; conditions: Mueller-Hinton Broth, 5 × 10^5 CFU/ml, 24 h, 37°C; average of ≥3 independent biological experiments
Procedure: (§1) Briefly, bacterial suspension in Mueller-Hinton Broth was adjusted to 0.5 McFarland and diluted to 5 × 10^5 CFU/ml. The suspension (0.1 ml) was seeded in polypropylene microtiter plates (Greiner), 5 × 10^4 CFU/well. APIM-peptides were added as 10% of the total volume. Initial inoculums were quantified by seeding on agar for verification of the estimated CFU/mL. After 24 hours (h) incubation at 37°C, the microtiter plates were inspected for visible growth.

E. coli MG1655 [1] = type: cell-based, Escherichia coli; conditions: Mueller-Hinton Broth, 5 × 10^5 CFU/ml, 24 h, 37°C; average of ≥3 independent biological experiments
Procedure: as §1

[2] = test system: clinical isolates of multidrug-resistant S. epidermidis; assay: Inhibition of growth (OD600) of clinical isolates; type: cell-based, Staphylococcus epidermidis; conditions: most sensitive clinical isolate (isolate 1); same molar concentration as the full-length RWLVK-peptide; Figure 1B
Procedure: Growth experiments were performed in Luria-Bertani broth (LB) media, Tryptic soy broth (TSB) or LB agar at 37°C, antibiotic selections were performed using the following concentrations: kanamycin 30 μg/ml, chloramphenicol 34 μg/ml and rifampicin 100 μg/ml.

E. coli MG1655 cells = assay: Replication assay (flow cytometry of DNA content, Rif/Cpx run-out); type: cell-based, Escherichia coli; conditions: up to 15 μM peptide (above MIC), then Rif and Cpx run-out
Procedure: E. coli MG1655 cells were grown at 37°C in glucose-CAA medium (AB minimal medium ([46]) supplemented with 10 μg/ml thiamine, 0.2% glucose and 0.5% casamino acids) for several generations to ensure balanced growth. At an OD600 = 0.15, the cells were added 2, 4 or 6 μM RWLVK* peptide or 2, 4, 6 or 15 μM R11 peptide. Growth was continued for 2–5 min. After peptide treatment, cells were either harvested directly or treated with rifampicin (Rif) (300 μg/ml) and cephalexin (Cpx) (10 μg/ml) for the time equivalent of three to four generations before harvesting. Both directly harvested and Rif and Cpx treated cells were re-suspended in TE buffer (10 mM Tris–HCl, pH 8.0, 1 mM EDTA, pH 8.0) and fixed in 70% ethanol. Fluorescein isothiocyanate (FITC, Sigma-Aldrich) ([47]) was used for protein staining (representing mass), and Hoechst 33258 was used for DNA staining (Sigma-Aldrich) ([48]). Flow cytometry was performed with an LSR-II flow cytometer equipped with a 488 nm argon-ion laser and a 355 nm krypton laser (BD Biosciences), and the results were analyzed using FlowJo software (Tree Star, Inc.). Rif and Cpx inhibit the initiation of replication and cell division, respectively. Cells cannot initiate a new round of replication after these drugs are added but can complete ongoing rounds of replication (without dividing). […]

E. coli MG1655 [3] = assay: Rif^R mutagenicity assay, added cell penetrating peptides; type: cell-based, Escherichia coli; conditions: spontaneous; for Mutation frequency, added peptides: E. coli MG1655, cell penetrating peptide 20 μM, average ± SEM, RWLVK n = 11, RFSLK n = 4, RWLK n = 7, R11 n = 5, control 10.5 ± 2.2
Procedure: (§2) The rifampicin resistance (Rif^R) mutagenicity assay was performed as described in ([50]) with some modifications. Briefly, E. coli BL21 expressing peptide variants were induced with (IPTG) (1 mM) at OD600 = 0.3–0.4 and cultured at 37°C, for 2 h before harvested. Bacteria from large culture volumes (up to 50 ml) were plated in order to obtain ∼100 Rif^R colonies per dish. The anti-mutagenic effect of cell penetrating APIM-peptides in E. coli MG1655 was done by adding 20 μM peptide at OD600 = 0.01, and the cells were cultured for 30 min. Next, the cells were pelleted and washed with PBS before UV-irradiated in (50 μl) PBS (2 mJ UVC/cm^2), re-suspended in 2.5 ml LB and cultured in 37°C for 2 h before plating on LB plates with and without Rif (100 μg/ml). The number of Rif^R colonies/ total CFU was determined after 1 and 2 days, respectively. Significance was calculated by using a two-tailed, paired, students t-test. Gentamicin resistance (Gen^R) was examined using a gentamicin sensitive clinical isolate of S. epidermidis. […] The cultures were grown in a shaking incubator (37°C) and were re-inoculated (1:100) every 24 h in fresh TSB and supplements. The cultures were plated on blood agar plates with and without gentamicin (10 mg/l) every day for 4 days, and the frequency of Gen^R colonies was determined by calculating the number of Gen^R colonies/total CFU.

E.coli β-clamp = molecular target: T1, E.coli β-clamp (Escherichia coli, UniProt P0A988); assay: Microscale thermophoresis (MST) β-clamp binding; conditions: cell penetrating peptides, MST buffer with 2% fetal bovine serum, initial in vitro binding experiments, bounds given
T1 construct: made in house
Procedure: Purified E.coli β-clamp ([49]) was labeled using the RED-Maleimide Labelling Kit (NanoTemper Technologies, GmbH) according to the manufacturer's instructions applying a concentration of 20 μM protein at room temperature. The ligands, cell penetrating APIM-peptides, were dissolved and diluted in supplemented Microscale thermophoresis (MST) buffer (50 mM Tris–HCl pH 7.5, 150 mM NaCl, 10 mM MgCl2) with 2% fetal bovine serum and incubated for 10 min in room temperature. Series of 1:1 dilutions (16×), producing ligand concentrations ranging from 500 μM to 15 nM, were made. Each ligand solution was further diluted 1:1 with fluorescent labeled β-clamp (diluted in MST buffer, 3 nM) and incubated for 10 min. Fluorescence was measured for each protein-ligand sample using a Monolith NT.115 instrument (20% MST power and 100% LED power) and Monolith NT Standard Treated Capillaries (both NanoTemper Technologies, GmbH). To calculate the KD’s, fluorescence signals were plotted and analyzed using the supplemented software (NT Analysis software version 1.5.41 and MO.affinity analysis version 2.2.4, NanoTemper Technologies). Denaturation with SD-buffer (4% sodium dodecyl sulphate and 40 mM DTT) and re-measurement of total fluorescence confirmed that the observed change in fluorescence was due to ligand binding event.

S.epidermidis (MRSE) = type: cell-based, Staphylococcus epidermidis; conditions: 24 h
Procedure: as §1

β-clamp = conditions: read-out: KD for the β-clamp; cited from earlier work
Excerpt: Next, we examined the direct interaction between the β-clamp and octamer peptides containing RWLVK and RALVK (i.e. without the cell penetrating part of the peptide) by SPR.

[4] = test system: gentamicin sensitive clinical isolate of S. epidermidis; assay: Gentamicin resistance (Gen^R) mutation frequency assay; type: cell-based, Staphylococcus epidermidis; conditions: peptide 3 μM, 4 days, daily re-inoculation 1:100 in TSB, n≥ 4; Figure 4B
Procedure: as §2

MRSA 43484 = assay: Murine skin wound infection model; conditions: topical
Procedure: The experimental procedure is modified from a previously described skin infection model in mice ([52]). A total of 32 Balb/C female mice (18–22 g, Taconic, Denmark) were used for the experiment. The mice were treated orally with analgesia, 45 μl Nurofen®junior (Novartis 20 mg/ml ∼30 mg/kg), 30–60 min before the experiment. The mice were anesthetized with 0.15 ml diluted Zoletil mix (2 ml Zoletil mix + 5.2 ml sterile saline + 2.8 ml Torbugesix 1:100) before the fur was removed on a 2 × 3 cm area of the back with an electric shaver and a razor. At last, a skin lesion was made on each mouse with a dermal curette (Miltex 335710). A total of 10 μl inoculum containing 10^7 CFU MRSA 43484 (in saline) was added to a 1 cm^2 area of the skin lesion of each mouse. One group of animals (six mice) were sacrificed 1 day after inoculation, before any treatment was given, to quantify the inoculum. The remaining mice were given topical treatment twice a day (9 a.m and 3 p.m) for 3 days; APIM-peptide (RFSLK, Innovagen SE, 12.8 mg/ml in 1% methyl cellulose gel containing 10% glycerol) or Fusidic acid 2% ointment (LeoPharma). A volume of 50 μl was used for each treatment, spread out on the skin lesion. […] The treated animals and the control group were sacrificed on day 4, one day after the last treatment. […]

T1 sequence (P0A988 whole entry): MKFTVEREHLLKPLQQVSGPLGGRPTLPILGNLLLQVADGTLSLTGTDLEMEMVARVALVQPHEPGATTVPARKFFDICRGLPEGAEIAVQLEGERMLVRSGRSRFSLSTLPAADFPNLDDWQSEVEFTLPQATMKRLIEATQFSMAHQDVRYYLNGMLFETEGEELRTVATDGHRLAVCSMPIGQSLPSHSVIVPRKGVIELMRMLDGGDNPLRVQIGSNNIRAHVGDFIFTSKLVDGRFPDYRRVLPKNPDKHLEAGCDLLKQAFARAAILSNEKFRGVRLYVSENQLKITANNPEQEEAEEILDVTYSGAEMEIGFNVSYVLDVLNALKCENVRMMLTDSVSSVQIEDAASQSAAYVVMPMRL

N=C(N)NCCC[C@H](NC(=O)[C@H](CCCNC(=N)N)NC(=O)[C@H](CCCNC(=N)N)NC(=O)[C@H](CCCNC(=N)N)NC(=O)[C@H](CCCNC(=N)N)NC(=O)[C@H](CCCNC(=N)N)NC(=O)[C@H](CCCNC(=N)N)NC(=O)[C@H](CCCNC(=N)N)NC(=O)[C@H](CCCNC(=N)N)NC(=O)[C@H](CCCNC(=N)N)NC(=O)[C@@H](N)CCCNC(=N)N)C(N)=O [R11, reference compound]
Minimal Inhibitory Concentration (MIC) E. coli BL21 (E. coli BL21): 11 µM
Minimal Inhibitory Concentration (MIC) E. coli MG1655 (E. coli MG1655 [1]): 14.5 µM
Inhibition of growth (OD600), % of untreated parallel [2]: no effect
Inhibition of DNA replication (E. coli MG1655 cells): did not have any effect
Effect of added cell penetrating peptide on the mutation frequency (E. coli MG1655 [3]; E. coli MG1655, 20 μM): did not affect the mutation frequency
Mutation frequency, added peptides (E. coli MG1655 [3]): 7.2 ± 3.9 Rif^R/10^8 CFU
KD for the β-clamp (MST) (E.coli β-clamp): no binding was detected
Minimal Inhibitory Concentration (MIC) S.epidermidis (MRSE) (S.epidermidis (MRSE)): 12 µM

Ac-EQVELEFD [Pol III peptide]
Kd (β-clamp): ~2000 nM

Ac-MDRFSLKWKKKRKIRRRRRRRRRRR-NH2 [RFSLK]
Mutation frequency (Gen^R/10^8 CFU) compared to the control, peptide alone [4]: did not change the mutation frequency
Minimal Inhibitory Concentration (MIC) E. coli BL21 (E. coli BL21): 4 µM
Minimal Inhibitory Concentration (MIC) E. coli MG1655 (E. coli MG1655 [1]): 7.5 µM
Mutation frequency, added peptides (E. coli MG1655 [3]): 4.1 ± 1.6 * Rif^R/10^8 CFU
Bacterial load in the infected lesions (CFU/skin lesion) on day 4 (MRSA 43484; 50 μl twice a day for 3 days, 12.8 mg/ml (3.5 mM) in 1% methyl cellulose gel with 10% glycerol, compared to controls, Figure 5): significantly reduced the bacterial load
Toxicity of the APIM-peptide gel (MRSA 43484; twice a day for 3 days, mice): no toxicity
Kd (E.coli β-clamp; read-out: KD for the β-clamp (MST)): < 50000 nM
Minimal Inhibitory Concentration (MIC) S.epidermidis (MRSE) (S.epidermidis (MRSE)): 3 µM
